Test results as given in PubChem BioAssay (NCI).
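Protocol summary: plate cells (96-well), add compound at 5 concentrations, incubate 48 h, interpolate endpoints linearly. Definition used: TGI = concentration required for complete inhibition of growth.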

Test system: SK-MEL-2 melanoma
Assay: NCI-60 cell line screen, 48 h

SMILES | TGI [µM]
CCc1c(O)c(O)c(C(C)=O)c2c(O)c(-c3c(C)cc4c(CC)c(O)c(O)c(C(C)=O)c4c3O)c(C)cc12 | 23
CC(C)(C)OC(=O)NC(CSSCC(NC(=O)OC(C)(C)C)C(=O)O)C(=O)O (configuration not stated) | > 100
COc1c(C)c(OCC=C(C)C)cc(CO)c1CO | > 100
COc1c2occc2c(N)c2ccc(=O)oc12 | > 100
CC(C)N1CCN(c2ccc(OCC3COC(Cn4cncn4)(c4ccc(Cl)cc4Cl)O3)cc2)CC1 (configuration not stated) | 30.5

Test system: SK-MEL-28 melanoma
Assay: NCI-60 cell line screen, 48 h

SMILES | TGI [µM]
C=CCn1c(=O)ccn(/C(=C/C(=O)OCC)C(=O)OCC)c1=O | 30.6
[N-]=[N+]=NC1(c2ccccc2)C(=O)c2cccc3c2N(CCC3)C1=O (configuration not stated) | > 100
CCc1c(O)c(O)c(C(C)=O)c2c(O)c(-c3c(C)cc4c(CC)c(O)c(O)c(C(C)=O)c4c3O)c(C)cc12 | 27.2
CC(C)(C)OC(=O)NC(CSSCC(NC(=O)OC(C)(C)C)C(=O)O)C(=O)O (configuration not stated) | > 100
COc1c2occc2c(N)c2ccc(=O)oc12 | > 100
CC(C)N1CCN(c2ccc(OCC3COC(Cn4cncn4)(c4ccc(Cl)cc4Cl)O3)cc2)CC1 (configuration not stated) | 12.3

Test system: SK-MEL-5 melanoma
Assay: NCI-60 cell line screen, 48 h

SMILES | TGI [µM]
C=CCn1c(=O)ccn(/C(=C/C(=O)OCC)C(=O)OCC)c1=O | 29.1
CC(C)(C)OC(=O)NC(CSSCC(NC(=O)OC(C)(C)C)C(=O)O)C(=O)O (configuration not stated) | > 100
COc1c(C)c(OCC=C(C)C)cc(CO)c1CO | 59.1
COc1c2occc2c(N)c2ccc(=O)oc12 | > 100
CC(C)N1CCN(c2ccc(OCC3COC(Cn4cncn4)(c4ccc(Cl)cc4Cl)O3)cc2)CC1 (configuration not stated) | 4.92

Test system: SK-OV-3 ovarian
Assay: NCI-60 cell line screen, 48 h

SMILES | TGI [µM]
C=CCn1c(=O)ccn(/C(=C/C(=O)OCC)C(=O)OCC)c1=O | 74.3
[N-]=[N+]=NC1(c2ccccc2)C(=O)c2cccc3c2N(CCC3)C1=O (configuration not stated) | > 100
CC(C)(C)OC(=O)NC(CSSCC(NC(=O)OC(C)(C)C)C(=O)O)C(=O)O (configuration not stated) | > 100
COc1c(C)c(OCC=C(C)C)cc(CO)c1CO | > 100
CC(C)N1CCN(c2ccc(OCC3COC(Cn4cncn4)(c4ccc(Cl)cc4Cl)O3)cc2)CC1 (configuration not stated) | 28.9

Test system: SN12C renal
Assay: NCI-60 cell line screen, 48 h

SMILES | TGI [µM]
C=CCn1c(=O)ccn(/C(=C/C(=O)OCC)C(=O)OCC)c1=O | 25.2
CC(C)(C)OC(=O)NC(CSSCC(NC(=O)OC(C)(C)C)C(=O)O)C(=O)O (configuration not stated) | > 100
COc1c(C)c(OCC=C(C)C)cc(CO)c1CO | > 100
COc1c2occc2c(N)c2ccc(=O)oc12 | > 100
CC(C)N1CCN(c2ccc(OCC3COC(Cn4cncn4)(c4ccc(Cl)cc4Cl)O3)cc2)CC1 (configuration not stated) | 30.7

Test system: SNB-19 CNS
Assay: NCI-60 cell line screen, 48 h

SMILES | TGI [µM]
C=CCn1c(=O)ccn(/C(=C/C(=O)OCC)C(=O)OCC)c1=O | > 58.3
[N-]=[N+]=NC1(c2ccccc2)C(=O)c2cccc3c2N(CCC3)C1=O (configuration not stated) | > 100
CC(C)(C)OC(=O)NC(CSSCC(NC(=O)OC(C)(C)C)C(=O)O)C(=O)O (configuration not stated) | > 100
COc1c(C)c(OCC=C(C)C)cc(CO)c1CO | > 100
COc1c2occc2c(N)c2ccc(=O)oc12 | > 100
CC(C)N1CCN(c2ccc(OCC3COC(Cn4cncn4)(c4ccc(Cl)cc4Cl)O3)cc2)CC1 (configuration not stated) | > 57.4

Test system: SNB-75 CNS
Assay: NCI-60 cell line screen, 48 h

SMILES | TGI [µM]
C=CCn1c(=O)ccn(/C(=C/C(=O)OCC)C(=O)OCC)c1=O | 30.4
[N-]=[N+]=NC1(c2ccccc2)C(=O)c2cccc3c2N(CCC3)C1=O (configuration not stated) | > 100
CCc1c(O)c(O)c(C(C)=O)c2c(O)c(-c3c(C)cc4c(CC)c(O)c(O)c(C(C)=O)c4c3O)c(C)cc12 | 30.7
CC(C)(C)OC(=O)NC(CSSCC(NC(=O)OC(C)(C)C)C(=O)O)C(=O)O (configuration not stated) | > 100
COc1c(C)c(OCC=C(C)C)cc(CO)c1CO | > 100
COc1c2occc2c(N)c2ccc(=O)oc12 | 69.1
CC(C)N1CCN(c2ccc(OCC3COC(Cn4cncn4)(c4ccc(Cl)cc4Cl)O3)cc2)CC1 (configuration not stated) | 27.5
CCCC(=O)OC[n+]1ccc2c(C)c3[nH]c4ccccc4c3c(C)c2c1 | > 100

Test system: SNB-78 CNS
Assay: NCI-60 cell line screen, 48 h

SMILES | TGI [µM]
[N-]=[N+]=NC1(c2ccccc2)C(=O)c2cccc3c2N(CCC3)C1=O (configuration not stated) | > 100
CCc1c(O)c(O)c(C(C)=O)c2c(O)c(-c3c(C)cc4c(CC)c(O)c(O)c(C(C)=O)c4c3O)c(C)cc12 | 12.1

Test system: SR leukemia
Assay: NCI-60 cell line screen, 48 h

SMILES | TGI [µM]
C=CCn1c(=O)ccn(/C(=C/C(=O)OCC)C(=O)OCC)c1=O | 23.2
[N-]=[N+]=NC1(c2ccccc2)C(=O)c2cccc3c2N(CCC3)C1=O (configuration not stated) | > 100
CCc1c(O)c(O)c(C(C)=O)c2c(O)c(-c3c(C)cc4c(CC)c(O)c(O)c(C(C)=O)c4c3O)c(C)cc12 | > 100
CC(C)(C)OC(=O)NC(CSSCC(NC(=O)OC(C)(C)C)C(=O)O)C(=O)O (configuration not stated) | > 100
COc1c(C)c(OCC=C(C)C)cc(CO)c1CO | > 100
